Key:
Test in all cases: biochemical
Set-up in all cases: species or system AsPC-1; Kinobeads competition pulldown in AsPC-1 lysate with LC-MS/MS label-free quantification; apparent Kd
STK3 ; Q13188;Q13188-2 = STK3 ; Q13188;Q13188-2 (Homo sapiens, UniProt Q13188)
[1] = target: PIP4K2C ; Q8TBX8;Q8TBX8-2;Q8TBX8-3 (Homo sapiens, UniProt Q8TBX8)
PIK3C3 ; Q8NEB9 = PIK3C3 ; Q8NEB9 (Homo sapiens, UniProt Q8NEB9)
[2] = target: ADCK1 ; Q86TW2;Q86TW2-2;Q86TW2-3 (Homo sapiens, UniProt Q86TW2)
[3] = target: CDK10 ; Q15131;Q15131-5;Q15131-2;Q15131-6;Q15131-4;Q15131-3;Q15131-7 (Homo sapiens, UniProt Q15131)
[4] = target: CIT ; O14578-4;O14578;O14578-2 (Homo sapiens, UniProt O14578)
CSNK2A2 ; P19784 = CSNK2A2 ; P19784 (Homo sapiens, UniProt P19784)
[5] = target: CDC42BPA ; Q5VT25-5;Q5VT25-4;Q5VT25;Q5VT25-2;Q5VT25-6;Q5VT25-3 (Homo sapiens, UniProt Q5VT25)
[6] = target: CLK1 ; P49759-3;P49759;P49759-2 (Homo sapiens, UniProt P49759)
TP53RK ; Q96S44 = TP53RK ; Q96S44 (Homo sapiens, UniProt Q96S44)
Sequence of TP53RK ; Q96S44 (Q96S44 whole entry): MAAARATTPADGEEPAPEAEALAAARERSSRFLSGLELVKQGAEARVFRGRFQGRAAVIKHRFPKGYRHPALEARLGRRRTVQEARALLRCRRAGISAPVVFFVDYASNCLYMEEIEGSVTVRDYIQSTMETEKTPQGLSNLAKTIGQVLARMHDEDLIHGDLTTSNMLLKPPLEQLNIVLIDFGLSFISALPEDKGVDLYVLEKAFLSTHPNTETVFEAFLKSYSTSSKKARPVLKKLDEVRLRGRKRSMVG

Sequence of CDK10 ; Q15131;Q15131-5;Q15131-2;Q15131-6;Q15131-4;Q15131-3;Q15131-7 (Q15131 whole entry): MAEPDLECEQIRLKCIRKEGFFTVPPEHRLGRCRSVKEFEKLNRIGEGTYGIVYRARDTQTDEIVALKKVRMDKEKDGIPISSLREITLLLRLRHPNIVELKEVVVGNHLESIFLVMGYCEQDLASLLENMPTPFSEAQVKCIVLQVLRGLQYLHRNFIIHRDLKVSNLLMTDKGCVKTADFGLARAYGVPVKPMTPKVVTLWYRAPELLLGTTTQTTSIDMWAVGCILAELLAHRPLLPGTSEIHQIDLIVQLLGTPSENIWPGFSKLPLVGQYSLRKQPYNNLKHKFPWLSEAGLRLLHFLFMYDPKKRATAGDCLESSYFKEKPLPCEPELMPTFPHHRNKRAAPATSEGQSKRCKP
Sequence of ADCK1 ; Q86TW2;Q86TW2-2;Q86TW2-3 (Q86TW2 whole entry): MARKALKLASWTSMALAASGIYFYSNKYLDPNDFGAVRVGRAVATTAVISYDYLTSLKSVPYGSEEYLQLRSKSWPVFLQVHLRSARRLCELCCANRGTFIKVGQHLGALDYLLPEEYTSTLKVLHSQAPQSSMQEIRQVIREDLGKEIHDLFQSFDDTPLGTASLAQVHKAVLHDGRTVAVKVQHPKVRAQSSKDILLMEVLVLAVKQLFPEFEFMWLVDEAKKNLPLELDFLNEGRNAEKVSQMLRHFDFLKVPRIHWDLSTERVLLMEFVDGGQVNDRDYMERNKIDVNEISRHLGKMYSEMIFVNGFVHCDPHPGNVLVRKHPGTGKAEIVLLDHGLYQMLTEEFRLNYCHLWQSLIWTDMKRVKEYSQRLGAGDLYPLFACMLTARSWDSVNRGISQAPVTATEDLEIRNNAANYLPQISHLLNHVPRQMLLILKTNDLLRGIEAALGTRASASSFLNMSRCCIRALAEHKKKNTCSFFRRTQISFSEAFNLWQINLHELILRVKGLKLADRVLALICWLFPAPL
Sequence of PIK3C3 ; Q8NEB9 (Q8NEB9 whole entry): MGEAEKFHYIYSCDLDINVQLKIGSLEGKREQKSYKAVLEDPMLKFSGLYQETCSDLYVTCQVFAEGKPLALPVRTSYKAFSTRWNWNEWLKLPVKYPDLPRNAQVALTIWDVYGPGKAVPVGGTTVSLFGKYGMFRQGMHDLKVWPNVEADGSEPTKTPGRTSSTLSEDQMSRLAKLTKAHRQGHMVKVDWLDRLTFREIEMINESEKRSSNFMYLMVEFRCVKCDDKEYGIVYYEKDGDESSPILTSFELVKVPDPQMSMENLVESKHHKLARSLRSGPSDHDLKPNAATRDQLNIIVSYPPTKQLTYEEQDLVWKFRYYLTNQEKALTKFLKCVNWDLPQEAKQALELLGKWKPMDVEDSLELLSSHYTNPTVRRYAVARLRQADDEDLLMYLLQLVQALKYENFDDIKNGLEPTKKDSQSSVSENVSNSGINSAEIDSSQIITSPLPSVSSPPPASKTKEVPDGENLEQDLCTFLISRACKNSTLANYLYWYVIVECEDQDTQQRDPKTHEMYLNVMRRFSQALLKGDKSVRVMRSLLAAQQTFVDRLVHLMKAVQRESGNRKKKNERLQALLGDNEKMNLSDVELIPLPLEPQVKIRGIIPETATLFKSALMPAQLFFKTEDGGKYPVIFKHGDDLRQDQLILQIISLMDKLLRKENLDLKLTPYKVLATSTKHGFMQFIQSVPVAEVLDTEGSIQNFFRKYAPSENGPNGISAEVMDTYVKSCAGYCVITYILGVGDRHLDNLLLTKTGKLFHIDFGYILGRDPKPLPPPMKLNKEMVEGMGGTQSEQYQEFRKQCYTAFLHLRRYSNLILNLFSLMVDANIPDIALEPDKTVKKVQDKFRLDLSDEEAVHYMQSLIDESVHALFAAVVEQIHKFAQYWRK
Sequence of CDC42BPA ; Q5VT25-5;Q5VT25-4;Q5VT25;Q5VT25-2;Q5VT25-6;Q5VT25-3 (Q5VT25 whole entry): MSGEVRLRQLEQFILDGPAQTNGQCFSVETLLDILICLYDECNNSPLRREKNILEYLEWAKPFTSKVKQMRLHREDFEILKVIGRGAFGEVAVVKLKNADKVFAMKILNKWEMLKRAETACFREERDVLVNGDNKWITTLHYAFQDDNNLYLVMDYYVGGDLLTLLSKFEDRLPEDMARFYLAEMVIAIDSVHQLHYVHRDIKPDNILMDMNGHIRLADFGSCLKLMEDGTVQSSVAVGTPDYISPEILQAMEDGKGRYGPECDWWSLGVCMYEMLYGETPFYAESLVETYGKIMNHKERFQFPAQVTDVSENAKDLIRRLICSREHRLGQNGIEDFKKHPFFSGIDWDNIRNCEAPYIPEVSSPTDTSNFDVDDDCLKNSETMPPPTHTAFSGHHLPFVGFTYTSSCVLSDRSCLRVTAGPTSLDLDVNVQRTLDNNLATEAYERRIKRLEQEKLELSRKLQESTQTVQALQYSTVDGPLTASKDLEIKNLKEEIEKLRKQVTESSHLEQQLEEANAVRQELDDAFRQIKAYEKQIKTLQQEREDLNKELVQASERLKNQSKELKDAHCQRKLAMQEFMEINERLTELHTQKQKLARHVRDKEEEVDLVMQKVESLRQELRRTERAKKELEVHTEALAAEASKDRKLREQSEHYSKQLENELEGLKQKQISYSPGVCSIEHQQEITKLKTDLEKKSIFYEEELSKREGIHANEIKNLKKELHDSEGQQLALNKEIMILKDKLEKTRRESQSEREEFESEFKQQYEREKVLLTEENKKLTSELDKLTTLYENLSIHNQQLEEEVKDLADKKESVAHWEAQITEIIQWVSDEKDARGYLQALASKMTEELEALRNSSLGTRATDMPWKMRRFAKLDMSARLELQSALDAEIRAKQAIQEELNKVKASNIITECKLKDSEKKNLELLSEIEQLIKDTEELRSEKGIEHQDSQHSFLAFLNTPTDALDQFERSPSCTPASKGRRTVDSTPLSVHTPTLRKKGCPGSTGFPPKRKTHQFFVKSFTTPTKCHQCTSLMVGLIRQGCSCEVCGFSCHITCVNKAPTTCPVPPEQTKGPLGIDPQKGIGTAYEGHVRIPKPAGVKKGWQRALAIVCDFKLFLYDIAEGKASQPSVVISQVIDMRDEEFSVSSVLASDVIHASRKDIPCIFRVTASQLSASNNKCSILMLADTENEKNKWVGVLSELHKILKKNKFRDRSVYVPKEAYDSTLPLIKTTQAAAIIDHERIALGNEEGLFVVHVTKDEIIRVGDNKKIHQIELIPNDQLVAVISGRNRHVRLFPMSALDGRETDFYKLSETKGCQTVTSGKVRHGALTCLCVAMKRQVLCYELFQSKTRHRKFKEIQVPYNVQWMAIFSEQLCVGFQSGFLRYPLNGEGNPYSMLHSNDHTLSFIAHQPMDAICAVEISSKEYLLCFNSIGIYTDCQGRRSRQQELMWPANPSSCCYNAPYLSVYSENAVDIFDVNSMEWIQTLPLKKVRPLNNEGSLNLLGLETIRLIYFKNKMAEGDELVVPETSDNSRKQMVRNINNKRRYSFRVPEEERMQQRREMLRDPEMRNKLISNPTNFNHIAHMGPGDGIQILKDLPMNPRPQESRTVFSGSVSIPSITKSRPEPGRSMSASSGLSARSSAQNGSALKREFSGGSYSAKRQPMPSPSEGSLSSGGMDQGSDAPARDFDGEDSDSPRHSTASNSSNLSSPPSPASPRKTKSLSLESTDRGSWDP
Sequence of PIP4K2C ; Q8TBX8;Q8TBX8-2;Q8TBX8-3 (Q8TBX8 whole entry): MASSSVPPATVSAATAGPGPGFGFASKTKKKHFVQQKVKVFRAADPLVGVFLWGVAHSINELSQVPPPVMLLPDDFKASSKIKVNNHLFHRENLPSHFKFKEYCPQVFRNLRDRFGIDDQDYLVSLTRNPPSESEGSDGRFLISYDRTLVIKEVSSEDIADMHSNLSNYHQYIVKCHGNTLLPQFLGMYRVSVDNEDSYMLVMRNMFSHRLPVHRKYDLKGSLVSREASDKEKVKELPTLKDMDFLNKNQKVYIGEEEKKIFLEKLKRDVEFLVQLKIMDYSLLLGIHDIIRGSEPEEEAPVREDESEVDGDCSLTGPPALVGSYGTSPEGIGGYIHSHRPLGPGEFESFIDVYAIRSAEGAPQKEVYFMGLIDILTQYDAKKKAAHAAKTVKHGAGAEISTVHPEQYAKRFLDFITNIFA
Sequence of STK3 ; Q13188;Q13188-2 (Q13188 whole entry): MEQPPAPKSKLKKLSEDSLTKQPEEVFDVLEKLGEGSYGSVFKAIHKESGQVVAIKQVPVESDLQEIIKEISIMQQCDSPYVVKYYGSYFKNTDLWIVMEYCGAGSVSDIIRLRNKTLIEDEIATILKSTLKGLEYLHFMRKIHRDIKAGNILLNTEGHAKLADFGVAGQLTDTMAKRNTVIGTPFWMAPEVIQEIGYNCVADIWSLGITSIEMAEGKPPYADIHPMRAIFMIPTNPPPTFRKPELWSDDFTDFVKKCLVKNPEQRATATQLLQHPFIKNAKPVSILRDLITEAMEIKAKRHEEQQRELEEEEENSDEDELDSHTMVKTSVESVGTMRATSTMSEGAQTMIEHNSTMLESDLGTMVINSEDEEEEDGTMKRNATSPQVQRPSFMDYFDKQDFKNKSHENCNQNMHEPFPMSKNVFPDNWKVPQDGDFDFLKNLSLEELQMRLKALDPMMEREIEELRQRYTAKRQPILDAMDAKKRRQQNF
Sequence of CSNK2A2 ; P19784 (P19784 whole entry): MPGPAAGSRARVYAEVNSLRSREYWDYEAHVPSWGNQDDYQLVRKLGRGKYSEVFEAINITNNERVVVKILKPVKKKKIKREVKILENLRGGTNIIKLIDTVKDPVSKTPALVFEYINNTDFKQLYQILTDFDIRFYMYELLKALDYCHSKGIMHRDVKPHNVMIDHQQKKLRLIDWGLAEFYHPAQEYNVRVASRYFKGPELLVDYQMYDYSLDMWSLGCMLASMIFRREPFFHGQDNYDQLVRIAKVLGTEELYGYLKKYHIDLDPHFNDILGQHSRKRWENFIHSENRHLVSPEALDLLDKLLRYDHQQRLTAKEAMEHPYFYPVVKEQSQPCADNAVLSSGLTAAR

Kd [2]	Kd [3]	Kd [4]	Kd (CSNK2A2 ; P19784)	Kd [5]	Kd [6]	Kd (TP53RK ; Q96S44)	SMILES	Kd (STK3 ; Q13188;Q13188-2)	Kd [1]	Kd (PIK3C3 ; Q8NEB9)
–	–	–	–	–	–	–	CNCc1ccc(-c2cc(-c3nc(-c4ccc(S(=O)(=O)C(C)C)cc4)cnc3N)on2)cc1 [Berzosertib]	70.2 nM	21.4 nM	9.2 nM
23.2 nM	153 nM	40 nM	15.1 nM	15.4 nM	70.9 nM	113 nM	Nc1nn2cc(F)cnc2c1C(=O)Nc1cncc(F)c1N1CCC(C(=O)N2CCN(C3COC3)CC2)CC1 [Gartisertib]	–	–	–
